Test results published in patent publication US10709707B2, “Methods of treating ocular conditions” (Oyster Point Pharma, Inc., priority 2016, dated 2020).
pKi: −log10 of the molar value.

Key:
[1] = 13-week repeat-dose oral toxicity in rats; format: in vivo, rat
Procedure: Compound 1 was given to rats once daily for at least 13 weeks via oral gavage at doses of 30, 100, or 300 mg/kg/day. Two of 15 females receiving 300 mg/kg/day died. Clinical signs in males and females in this high-dose group included; reduced food consumption, anogenital staining, lacrimation, chromodacryorrhea, and tremors. Laboratory results included marginally lower RBC mass that correlated with elevated reticulocyte counts with recovery; elevated liver enzymes and bilirubin throughout the dosing period, with evidence of resolution during recovery urinary changes, including increased urine volume, elevated urinary protein, and higher bilirubin and urobilinogen, with resolution during recovery. Rats receiving doses of 100 mg/kg/day and higher had clinical signs that included excessive salivation, tan brown muzzle, closed or partially closed eyelids, and reduced body weight. Laboratory results included elevated WBC (lymphocytes and neutrophils), with recovery; elevated bilirubin; and a slight decrease in total serum protein (globulins and albumin). […] At doses ≥100 mg/kg/day, microscopic findings of centrilobular hepatocellular hypertrophy, medullary adrenal gland cell hypertrophy, mucosal epithelial cell hyperplasia of the small intestine, and increased extramedullary hematopoiesis and hemosiderin deposits in the red pulp of the spleen were observed. […] Accordingly, the NOAEL was considered to be 30 mg/kg/day. […] AUC and Cmax increased between Day 1 and Day 29.

[2] = binding to red blood cells and blood/plasma ratio; format: in vitro ADME; settings: broadly species and concentration independent
Procedure: Binding of Compound 1 to red blood cells was 28 to 54% directly after spiking and 41 to 63% at 0.5 and 1 hour after spiking. The blood/plasma ratios ranged from 0.78 to 1.26 and were broadly species and concentration independent.

[3] = 2-week and 13-week repeated dose TK studies, monkey; format: in vivo; settings: for emesis: 100 mg/kg/day
Procedure: In 2-week and 13-week repeated dose TK studies in monkey, animals were dosed orally at 10, 30 or 100 mg/kg/day (2-week study) or at 10, 30 or 60 mg/kg/day (13-week study). […] In the 2-week study, exposure increased roughly proportional to dose from 10 to 30 mg/kg/day on Days 1 and 14 and less than proportionally from 30 to 100 mg/kg/day on Days 1 and 14; emesis in the 100 mg/kg/day dose group, 6/6 animals on Day 1 and 5/6 animals on Day 14, may have contributed to this. There was little accumulation in any dose group from Day 1 to Day 14.

[4] = single-dose nasal spray tolerability and PK in rabbits; format: in vivo, New Zealand White rabbit; settings: male rabbits
Procedure: The potential toxicity and TK of Compound 1 nasal spray was assessed following a single spray (100 μL) of either 2% or 5% Compound 1 in the right nostril of male New Zealand White rabbits (N=36). Phosphate buffered solution (PBS) served as the control and was sprayed (100 μL) in the left nostril. Bioanalytical and histopathological analyses were conducted at 1, 3, 6, 9, and 24 h post-treatment. Prior to sacrifice, the intranasal/nasal area of each animal was assessed using the Draize Classification System for Scoring Skin Irritation.

a6b3b4a5 = a6b3b4a5 (Homo sapiens, UniProt P30926+Q15825); assay: Receptor binding a6b3b4a5
[5] = 7-day pilot intranasal toxicity and toxicokinetic study in rats; settings: for AUC(0-t): AUC0-t
Procedure: The study design was as follows:
The following parameters and end points were evaluated in this study; clinical signs, body weights, body weight gain, food consumption, ophthalmology, toxicokinetic parameters, gross necropsy findings, organ weights, and histopathologic examination of select tissues, including nasal cavity at levels I-IV and detailed ocular histopathology for all dose groups: histopathology for brain, pharynx, larynx, trachea, lung, and select target tissues (i.e., adrenal gland, liver, and spleen) that were identified in a GLP 13-week oral toxicity study in rats (DSE 2004-0356) in group 1 and 4 animals, and gross lesions.

[6] = female, rat, in vivo, po, 30 mg/kg/day
[7] = male, rat, in vivo, po, 30 mg/kg/day
[8] = Female, Day 1, 0.9 mg/day (0.5%), intranasal TID
[9] = Female, Day 1, 3.6 mg/day (2%), intranasal TID
[10] = Female, Day 1, 10.8 mg/day (6%), intranasal TID
[11] = Female, Day 7, 0.9 mg/day (0.5%), intranasal TID
[12] = Female, Day 7, 3.6 mg/day (2%), intranasal TID
[13] = Female, Day 7, 10.8 mg/day (6%), intranasal TID
[14] = Male, Day 1, 0.9 mg/day (0.5%), intranasal TID
[15] = Male, Day 1, 3.6 mg/day (2%), intranasal TID
[16] = Male, Day 1, 10.8 mg/day (6%), intranasal TID
[17] = Male, Day 7, 0.9 mg/day (0.5%), intranasal TID
[18] = Male, Day 7, 3.6 mg/day (2%), intranasal TID
[19] = Male, Day 7, 10.8 mg/day (6%), intranasal TID
[20] = female, rat, plasma, inhaled or intranasal, 0.9 mg/day, Female, Day 1, 0.9 mg/day (0.5%), intranasal TID
[21] = female, rat, plasma, inhaled or intranasal, 0.9 mg/day, Female, Day 7, 0.9 mg/day (0.5%), intranasal TID
[22] = female, rat, plasma, inhaled or intranasal, 3.6 mg/day, Female, Day 1, 3.6 mg/day (2%), intranasal TID
[23] = female, rat, plasma, inhaled or intranasal, 3.6 mg/day, Female, Day 7, 3.6 mg/day (2%), intranasal TID
[24] = female, rat, plasma, inhaled or intranasal, 10.8 mg/day, Female, Day 1, 10.8 mg/day (6%), intranasal TID
[25] = female, rat, plasma, inhaled or intranasal, 10.8 mg/day, Female, Day 7, 10.8 mg/day (6%), intranasal TID
[26] = male, rat, plasma, inhaled or intranasal, 0.9 mg/day, Male, Day 1, 0.9 mg/day (0.5%), intranasal TID
[27] = male, rat, plasma, inhaled or intranasal, 0.9 mg/day, Male, Day 7, 0.9 mg/day (0.5%), intranasal TID
[28] = male, rat, plasma, inhaled or intranasal, 3.6 mg/day, Male, Day 1, 3.6 mg/day (2%), intranasal TID
[29] = male, rat, plasma, inhaled or intranasal, 3.6 mg/day, Male, Day 7, 3.6 mg/day (2%), intranasal TID
[30] = male, rat, plasma, inhaled or intranasal, 10.8 mg/day, Male, Day 1, 10.8 mg/day (6%), intranasal TID
[31] = male, rat, plasma, inhaled or intranasal, 10.8 mg/day, Male, Day 7, 10.8 mg/day (6%), intranasal TID

Sequence of a6b3b4a5 (Q15825 26-494): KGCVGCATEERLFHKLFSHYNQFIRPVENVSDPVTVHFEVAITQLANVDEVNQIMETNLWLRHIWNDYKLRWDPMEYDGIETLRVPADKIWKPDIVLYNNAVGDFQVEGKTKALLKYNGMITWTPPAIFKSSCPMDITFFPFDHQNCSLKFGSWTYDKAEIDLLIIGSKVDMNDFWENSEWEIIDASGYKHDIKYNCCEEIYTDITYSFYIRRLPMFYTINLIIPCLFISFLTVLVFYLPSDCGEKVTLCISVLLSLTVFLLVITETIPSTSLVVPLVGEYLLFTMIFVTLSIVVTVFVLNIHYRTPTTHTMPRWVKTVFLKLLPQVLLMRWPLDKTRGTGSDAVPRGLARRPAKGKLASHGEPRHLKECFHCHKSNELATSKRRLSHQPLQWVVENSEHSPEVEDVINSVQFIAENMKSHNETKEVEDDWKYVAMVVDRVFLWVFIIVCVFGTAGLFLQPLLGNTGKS
Sequence of a6b3b4a5 (P30926 22-498): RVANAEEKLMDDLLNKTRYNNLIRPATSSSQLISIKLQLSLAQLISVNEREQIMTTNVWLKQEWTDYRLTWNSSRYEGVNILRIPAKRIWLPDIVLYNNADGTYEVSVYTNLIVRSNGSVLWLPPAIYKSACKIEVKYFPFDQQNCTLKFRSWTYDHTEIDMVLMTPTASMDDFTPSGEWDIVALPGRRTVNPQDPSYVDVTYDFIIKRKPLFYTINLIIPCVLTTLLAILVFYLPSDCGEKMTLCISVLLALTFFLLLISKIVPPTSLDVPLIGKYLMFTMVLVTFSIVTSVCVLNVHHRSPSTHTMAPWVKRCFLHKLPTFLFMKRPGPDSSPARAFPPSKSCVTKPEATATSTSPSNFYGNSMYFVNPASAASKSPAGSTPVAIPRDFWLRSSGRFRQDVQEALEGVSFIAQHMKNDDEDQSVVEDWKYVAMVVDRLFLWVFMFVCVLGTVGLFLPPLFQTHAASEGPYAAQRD
Sequence of a6b3b4a5 (Q05901 25-458 partner limits assumed): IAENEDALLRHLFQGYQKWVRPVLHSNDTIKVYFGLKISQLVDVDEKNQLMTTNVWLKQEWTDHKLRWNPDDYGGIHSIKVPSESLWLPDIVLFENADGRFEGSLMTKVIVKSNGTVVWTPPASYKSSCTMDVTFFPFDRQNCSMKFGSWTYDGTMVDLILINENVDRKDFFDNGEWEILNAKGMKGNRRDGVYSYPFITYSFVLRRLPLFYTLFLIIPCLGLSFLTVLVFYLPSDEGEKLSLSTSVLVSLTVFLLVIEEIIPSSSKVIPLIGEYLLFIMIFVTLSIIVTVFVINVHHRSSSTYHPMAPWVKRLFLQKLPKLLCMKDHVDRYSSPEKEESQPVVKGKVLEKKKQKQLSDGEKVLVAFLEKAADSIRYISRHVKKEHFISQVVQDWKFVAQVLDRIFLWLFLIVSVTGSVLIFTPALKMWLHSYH
Sequence of a6b3b4a5 (P30532 23-468 partner): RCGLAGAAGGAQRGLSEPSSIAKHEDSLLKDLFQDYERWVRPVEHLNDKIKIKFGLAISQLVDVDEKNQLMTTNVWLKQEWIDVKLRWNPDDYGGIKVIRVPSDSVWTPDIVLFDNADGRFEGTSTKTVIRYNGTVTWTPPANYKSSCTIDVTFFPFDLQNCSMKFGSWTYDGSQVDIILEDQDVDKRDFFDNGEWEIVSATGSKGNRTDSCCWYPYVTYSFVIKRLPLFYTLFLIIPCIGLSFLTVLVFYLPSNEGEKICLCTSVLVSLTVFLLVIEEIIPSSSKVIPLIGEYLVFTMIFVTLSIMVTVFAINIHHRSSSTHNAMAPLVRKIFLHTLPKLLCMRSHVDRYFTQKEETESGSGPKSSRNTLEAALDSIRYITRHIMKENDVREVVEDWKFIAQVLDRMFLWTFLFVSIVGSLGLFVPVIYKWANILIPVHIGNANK

C(=C\[C@H]1CCNC1)/c1cncnc1 [Compound 1, (R)-5-((E)-2-pyrrolidin-3-ylvinyl)pyrimidine]
NOAEL at 13 weeks ([1]; both sexes, in vivo, 13-week rat study, oral, as summarised): 30 mg/kg | Tmax ([1]; both sexes, rat, in vivo, po): 0.5 to 2 h | NOAEL at 13 weeks ([1]; both sexes, rat, in vivo, rats, oral gavage once daily, 13 weeks): 30 mg/kg/day | AUC [1, 6]: 10200 ng·h/mL | Cmax [1, 6]: 3150 ng/mL | deaths ([1]; females, 300 mg/kg/day): Two of 15 | incidence of minimal hepatocellular hypertrophy ([1]; male, rat, in vivo, 30 mg/kg/day, 13 weeks): 7 of 10 | AUC [1, 7]: 12100 ng·h/mL | Cmax [1, 7]: 2570 ng/mL | blood plasma ratio [2]: 0.78 to 1.26 | emesis ([3]; Day 1, 2-week study): 6/6 | emesis ([3]; Day 14, 2-week study): 5/6 | Tmax ([3]; both sexes, cynomolgus, monkey, in vivo, oral 10-100 mg/kg/day, 2-week and 13-week studies): 0.5 to 6 h | accumulation ([3]; either study): Little to no accumulation | gender effect ([3]; either study): no gender effect | intranasal/nasal assessment (Draize) ([4]; single 100 μL spray of 2% or 5%): no signs of erythema, edema, eschar formation or discharge | clinical signs ([4]; single 100 μL spray of 2% or 5% in right nostril): No clinical signs were observed | histopathology of the nasal cavity ([4]; single 100 μL spray of 2% or 5%, 1 to 24 h post-treatment): no macroscopic or microscopic findings | pKi (a6b3b4a5): 5.96 | C1 (peak concentration following 1st instillation) [5, 8]: 26.1 ng/mL | C2 (peak concentration following 2nd instillation) [5, 8]: 34.8 ng/mL | C3 (peak concentration following 3rd instillation) [5, 8]: 34.9 ng/mL | DN AUC0-t (dose-normalized) [5, 8]: 154 (ng*h/mL)/(mg) | C1 (peak concentration following 1st instillation) [5, 9]: 50.2 ng/mL | C2 (peak concentration following 2nd instillation) [5, 9]: 119 ng/mL | C3 (peak concentration following 3rd instillation) [5, 9]: 278 ng/mL | DN AUC0-t (dose-normalized) [5, 9]: 174 (ng*h/mL)/(mg) | C1 (peak concentration following 1st instillation) [5, 10]: 326 ng/mL | C2 (peak concentration following 2nd instillation) [5, 10]: 481 ng/mL | C3 (peak concentration following 3rd instillation) [5, 10]: 329 ng/mL | DN AUC0-t (dose-normalized) [5, 10]: 386 (ng*h/mL)/(mg) | C1 (peak concentration following 1st instillation) [5, 11]: 20.3 ng/mL | C2 (peak concentration following 2nd instillation) [5, 11]: 16.3 ng/mL | C3 (peak concentration following 3rd instillation) [5, 11]: 37.5 ng/mL | DN AUC0-t (dose-normalized) [5, 11]: 164 (ng*h/mL)/(mg) | C1 (peak concentration following 1st instillation) [5, 12]: 68.0 ng/mL | C2 (peak concentration following 2nd instillation) [5, 12]: 79.9 ng/mL | C3 (peak concentration following 3rd instillation) [5, 12]: 76.0 ng/mL | DN AUC0-t (dose-normalized) [5, 12]: 93.5 (ng*h/mL)/(mg) | C1 (peak concentration following 1st instillation) [5, 13]: 218 ng/mL | C2 (peak concentration following 2nd instillation) [5, 13]: 224 ng/mL | C3 (peak concentration following 3rd instillation) [5, 13]: 210 ng/mL | DN AUC0-t (dose-normalized) [5, 13]: 137 (ng*h/mL)/(mg) | C1 (peak concentration following 1st instillation) [5, 14]: 51.9 ng/mL | C2 (peak concentration following 2nd instillation) [5, 14]: 36.3 ng/mL | C3 (peak concentration following 3rd instillation) [5, 14]: 54.2 ng/mL | C1 (peak concentration following 1st instillation) [5, 15]: 86.4 ng/mL | C2 (peak concentration following 2nd instillation) [5, 15]: 343 ng/mL | C3 (peak concentration following 3rd instillation) [5, 15]: 134 ng/mL | DN AUC0-t (dose-normalized) [5, 15]: 230 (ng*h/mL)/(mg) | C1 (peak concentration following 1st instillation) [5, 16]: 208 ng/mL | C2 (peak concentration following 2nd instillation) [5, 16]: 332 ng/mL | C3 (peak concentration following 3rd instillation) [5, 16]: 924 ng/mL | DN AUC0-t (dose-normalized) [5, 16]: 157 (ng*h/mL)/(mg) | C1 (peak concentration following 1st instillation) [5, 17]: 12.4 ng/mL | C2 (peak concentration following 2nd instillation) [5, 17]: 28.0 ng/mL | C3 (peak concentration following 3rd instillation) [5, 17]: 33.7 ng/mL | C1 (peak concentration following 1st instillation) [5, 18]: 110 ng/mL | C2 (peak concentration following 2nd instillation) [5, 18]: 53.8 ng/mL | C3 (peak concentration following 3rd instillation) [5, 18]: 25.5 ng/mL | DN AUC0-t (dose-normalized) [5, 18]: 82.7 (ng*h/mL)/(mg) | C1 (peak concentration following 1st instillation) [5, 19]: 166 ng/mL | C2 (peak concentration following 2nd instillation) [5, 19]: 209 ng/mL | C3 (peak concentration following 3rd instillation) [5, 19]: 225 ng/mL | DN AUC0-t (dose-normalized) [5, 19]: 81.3 (ng*h/mL)/(mg) | half-life ([5]; both, rat, plasma, inhaled or intranasal): 1.4 h | AUC(0-t) [5, 20]: 138 ng·h/mL | AUC(0-t) [5, 21]: 148 ng·h/mL | Cmax [5, 20]: 34.9 ng/mL | Cmax [5, 21]: 37.5 ng/mL | Tmax [5, 20]: 12.1 h | Tmax [5, 21]: 12.1 h | AUC(0-t) [5, 22]: 626 ng·h/mL | AUC(0-t) [5, 23]: 336 ng·h/mL | Cmax [5, 22]: 278 ng/mL | Cmax [5, 23]: 79.9 ng/mL | Tmax [5, 22]: 12.1 h | Tmax [5, 23]: 6.08 h | AUC(0-t) [5, 24]: 4170 ng·h/mL | AUC(0-t) [5, 25]: 1480 ng·h/mL | Cmax [5, 24]: 481 ng/mL | Cmax [5, 25]: 224 ng/mL | Tmax [5, 24]: 6.08 h | Tmax [5, 25]: 6.08 h | Cmax [5, 26]: 54.2 ng/mL | Cmax [5, 27]: 33.7 ng/mL | Tmax [5, 26]: 12.1 h | Tmax [5, 27]: 12.1 h | AUC(0-t) [5, 28]: 829 ng·h/mL | AUC(0-t) [5, 29]: 298 ng·h/mL | Cmax [5, 28]: 343 ng/mL | Cmax [5, 29]: 110 ng/mL | Tmax [5, 28]: 6.08 h | Tmax [5, 29]: 0.083 h | AUC(0-t) [5, 30]: 1700 ng·h/mL | AUC(0-t) [5, 31]: 878 ng·h/mL | Cmax [5, 30]: 924 ng/mL | Cmax [5, 31]: 225 ng/mL | Tmax [5, 30]: 12.1 h | Tmax [5, 31]: 12.1 h | time of peak systemic exposure after each instillation ([5]; rat, intranasal TID, post administration): 5 min | survival ([5]; rats, intranasal 0.5%, 2% and 6%, 3 times per day for 7 days): survival of all animals to scheduled euthanasia | no-observed-adverse-effect-level (NOAEL) ([5]; rats, intranasal 3 times per day for 7 days): 180 μL 6% Compound 1 per animal per day
